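Cultured in 96-well plates, cells were exposed to test compound for 48 hours across five concentrations. The concentration for 50% growth inhibition is given as GI50. TGI is the concentration that stops growth completely.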
Test system: MDA-MB-468 breast
Test: DTP human tumour cell line panel, 48 h

| SMILES | GI50 [µM] | TGI [µM] |
| --- | --- | --- |
| Cc1ccc(Cl)cc1-c1nc(N)nc(Nc2ccc(Br)cc2)n1 | 0.175 | 0.614 |
| N#CC1=C(N)Oc2c(ccc3ccccc23)C1c1cccs1 (stereo not drawn) | 0.0375 | 13.7 |
| CCCCCCCC(=O)SCC/C=C/[C@@H]1CC(=O)NCc2cccc(n2)CN(Cc2ccc3ccccc3c2)CC(=O)N[C@@H](C(C)C)C(=O)O1 | 33.3 | > 100 |
| OCc1ccc(N(Cc2ccc(F)cc2)CC2CC2)cc1Cl | 0.0189 | 0.0686 |
| CCOC(=O)/C=C1/SC(N2CCCCC2)C(=O)N1CC (stereo not drawn) | > 100 | > 100 |
| C=C1C(=O)O[C@H]2[C@H]1CC/C(COC(=O)CCSSCCC(=O)OC/C1=C/CC[C@@]3(C)O[C@H]3[C@H]3OC(=O)C(=C)[C@@H]3CC1)=C\CC[C@@]1(C)O[C@@H]21 | 0.543 | 2.28 |
| O=S(=O)(Nc1ccc(Cl)cc1)c1ccc(-c2cnc(C3CC3)o2)cc1 | 0.368 | 6.01 |
| O=C1N[C@@H]2[C@@H](O)[C@@H](O)[C@H](O)C[C@H]2c2cc3c(c(O)c21)OCO3 | 0.058 | 0.298 |
| CC(=O)N1CCC(Nc2cc(C(=O)NC[C@H](O)CN3CCc4ccccc4C3)ncn2)CC1 | > 100 | > 100 |
| O=c1ccc2nc(C(F)(F)F)nn(-c3ccccc3)c-2c1 | 1.06 | 2.98 |
| Cc1cc(Nc2ccc3c(c2)OCO3)c2cc3c(cc2n1)OCO3 | 0.519 | 15 |
| CC1(C)CC[C@]2(C(N)=O)CC[C@]3(C)C(=CC[C@@H]4[C@@]5(C)C/C(=C/c6cccnc6)C(=O)C(C)(C)[C@@H]5CC[C@]43C)[C@@H]2C1 | 3.2 | > 100 |
| CCCN(CCC)c1ccc(CO)c(Cl)c1 | 0.0469 | 0.199 |
| Cc1cc(N(CCNc2ccnc3cc(Cl)ccc23)Cc2cccs2)nc(Cl)n1 | 1.22 | 2.7 |
| O=C(Nc1ccc([As]=[As]c2ccc(NC(=O)c3ccccc3)cc2)cc1)c1ccccc1 (stereo not drawn) | 0.152 | 0.324 |
| CC(C)C[C@H](NC(=O)Cn1ccc(Nc2ccccc2)cc1=O)B(O)O | 0.423 | 5.88 |
| Cc1cc(Oc2ccccc2)ccc1Nc1ncnc2ccc(-c3cnc(Cl)c(NS(C)(=O)=O)c3)cc12 | 1.04 | 3.33 |
| CCOC(=O)c1nnn(-c2no[n+]([O-])c2-c2ccc(OC)cc2)c1COc1cccc2cccnc12 | 2.61 | 7.99 |
| C[C@]12CCC(=O)CC1CC[C@@H]1C2CC[C@@]2(C)C1CC[C@@H]2OC(=O)CC[Se][Se]CCC(=O)O[C@H]1CCC2[C@@H]3CCC4CC(=O)CC[C@]4(C)C3CC[C@@]21C (stereo partly drawn) | 2.1 | 5.06 |
| ClCCn1cnc2c(SCc3ccccc3Cl)ncnc21 | 9.76 | 67.6 |
| C=C1C(=O)O[C@H]2[C@H]1CC/C(COC(=O)/C=C\C(=O)NCc1ccc(Cn3c(=O)sn(CCCI)c3=O)cc1)=C\CC[C@@]1(C)O[C@@H]21 | 0.519 | 1.19 |

| SMILES | GI50 [µM] | TGI [µM] |
| --- | --- | --- |
| O=C(Nc1ccc(-c2nc(-c3cccc(O)c3)c(-c3ccnc(Br)c3)[nH]2)cc1)c1ccccc1 | 1.91 | 4.74 |
| C=CC(=O)N1C[C@H](COc2nc(Nc3cnn(C)c3)nc3[nH]cc(Cl)c23)[C@@H](OC)C1 | 0.445 | 2.59 |
| Oc1cccc(-c2nc(-c3n[nH]c(=S)n3-c3ccccc3)cc3c2[nH]c2ccccc23)c1 | 2.54 | 7.41 |
| Cc1ccc(NC2=N[C@]34CC(=O)CC[C@]3(C)[C@H]3CC[C@]5(C)C(=O)CC[C@H]5[C@@H]3C[C@@H]4S2)c(C)c1 | 1.93 | 3.93 |
| C[CH2][Pb]([CH2]C)([CH2]C)[O]C(=O)COc1ccccc1 | 0.23 | 0.659 |
| Cc1nn(CCO)c(C)c1N=[N+]([O-])c1c(C)nn(CCO)c1C | 2.84 | 15.8 |
| C=C1C(=O)O[C@H]2[C@H]1CC/C(COC(=O)CCCC(=O)OC/C1=C/CC[C@@]3(C)O[C@H]3[C@H]3OC(=O)C(=C)[C@@H]3CC1)=C\CC[C@@]1(C)O[C@@H]21 | 1.51 | 5.3 |
| COc1ccc2c(c1)NC(=O)CN2c1nc(NC2CC2)nc2ccccc12 |  | 3.75 |
| C[n+]1c2ccccc2c(Nc2ccc(N3CCCCC3)cc2)c2[nH]c3ccccc3c21 | 0.153 | 0.401 |
| O=C(Nc1cccc(Cl)c1)Nc1nccs1 | 8.83 | 89.5 |
| CN(C)CCCNCc1ccc(-c2ccc(F)c(Cl)c2)o1 | 8.92 | 23.4 |
| O=CN/N=C/c1ccc(Cl)c([N+](=O)[O-])c1 | 0.127 | 4.26 |
| COc1cc(-c2csc(NC(=O)Nc3ccc(Cl)c(C(F)(F)F)c3)n2)cc(OC)c1OC | 0.775 | 3.85 |
| N#Cc1c(Br)n(C2OC(CO)C(O)C2O)c2ncn3ccnc3c12 (stereo not drawn) | 35.2 | > 100 |
| O=C(CCCCN1CCOCC1)Nc1ccc(Cn2nnc3c2C(=O)c2nnn(Cc4ccc(NC(=O)CCCCN5CCOCC5)cc4)c2C3=O)cc1 | 0.103 | 0.261 |
| CN(C)CCCn1c2c(c3ccc(-c4ccn[nH]4)cc3c1=O)C(=O)c1ccccc1-2 | 7.84 | 24 |
| C(=C1c2ccccc2-c2ccccc21)c1ccncc1 | 2.28 | 6.64 |
| N#Cc1c(-c2ccc(Cl)cc2)nc(SCc2ccccc2)nc1N1CCNCC1 | 1.71 | 3.46 |
| O=C(N/N=C/c1c(Cl)cccc1Cl)c1cccnc1Nc1cccc(C(F)(F)F)c1 | 0.951 | 9.27 |
| CCCC(=O)NC(c1ccc(N(CC)CC)cc1)c1cc(C)c2cccnc2c1O (stereo not drawn) | 0.386 | 1.96 |
| O=Cc1cn(Cc2ccc(Cl)cc2)c2ccccc12 | 0.022 | 0.0801 |
